Patent publication US4394375A, “Cephalosporin derivatives, and compositions containing them” (Beecham Group Limited, priority 1980, dated 1983)
Converted amounts (≈) assume the structure as drawn. Read-outs that look alike come from different tables or passages of the source.

Key:
Assay type in all cases: cell-based
E. coli ESS = assay: MIC, E. coli ESS; conditions: Escherichia coli
E. coli JT 4 = assay: MIC, E. coli JT 4; conditions: Escherichia coli, JT4
E. coli JT 425 = assay: MIC, E. coli JT 425; conditions: Escherichia coli, JT425
E. coli NCTC 10418 = assay: MIC, E. coli NCTC 10418; conditions: Escherichia coli, NCTC10418
Ps aeruginosa NCTC 10662 = assay: MIC, Ps aeruginosa NCTC 10662
Ps aeruginosa Dalgleish = assay: MIC, Ps aeruginosa Dalgleish; conditions: Ps aeruginosa Dalgleish 10^-2
S. marcescens US 32 = assay: MIC, S. marcescens US 32; conditions: Serratia marcescens, US32
K. aerogenes A = assay: MIC, K. aerogenes A; conditions: Klebsiella aerogenes
E. cloacae Nl = assay: MIC, E. cloacae Nl; conditions: Enterobacter cloacae
P. mirabilis C 977 = assay: MIC, P. mirabilis C 977; conditions: Proteus mirabilis, C977
P. mirabilis 889 = assay: MIC, P. mirabilis 889; conditions: Proteus mirabilis
P. morganii = assay: MIC, P. morganii; conditions: Morganella morganii
P. rettgeri = assay: MIC, P. rettgeri; conditions: Providencia rettgeri
B. subtilis = assay: MIC, B. subtilis; conditions: Bacillus subtilis
S. aureus Oxford = assay: MIC, S. aureus Oxford; conditions: Staphylococcus aureus
S. aureus Russell = assay: MIC, S. aureus Russell; conditions: Staphylococcus aureus
N. catarrhalis 1502 = assay: MIC, N. catarrhalis 1502
S. faecalis I = assay: MIC, S. faecalis I; conditions: Enterococcus faecalis
S. pyogenes CN 10 = assay: MIC, S. pyogenes CN 10; conditions: Streptococcus pyogenes, CN10
[1] = Ps aeruginosa NCTC 10662, read-out: MIC

CCN1CCN(C(=O)N[C@@H](C(=O)N[C@]2(CO)C(=O)N3C(C(=O)O)=C(CSc4nnnn4C)CS[C@@H]32)c2ccccc2)C(=O)C1=O [Example 4, 7β-[2(4-Ethyl-2,3-dioxopiperazine-1-carbonylamino)-2-phenylacetamido]-7α-hydroxymethyl-3-(1-methyl-1H-tetrazol-5-ylthio)methylceph-3-em-4-carboxylic acid]
MIC (E. coli ESS): < 0.02 µg/mL | MIC (E. coli JT 4): 5 µg/mL (≈ 7.58 µM) | MIC (E. coli JT 425): 1 µg/mL (≈ 1.52 µM) | MIC (E. coli NCTC 10418): 1 µg/mL (≈ 1.52 µM) | MIC (Ps aeruginosa NCTC 10662; Ps aeruginosa NCTC 10662 10^-2): > 100 µg/mL | MIC (Ps aeruginosa NCTC 10662; [1]): > 100 µg/mL | MIC (Ps aeruginosa Dalgleish): 100 µg/mL (≈ 152 µM) | MIC (S. marcescens US 32): 5 µg/mL (≈ 7.58 µM) | MIC (K. aerogenes A): 0.2 µg/mL (≈ 0.303 µM) | MIC (E. cloacae Nl): 25 µg/mL (≈ 37.9 µM) | MIC (P. mirabilis C 977): 5 µg/mL (≈ 7.58 µM) | MIC (P. mirabilis 889): 2.5 µg/mL (≈ 3.79 µM) | MIC (P. morganii): 10 µg/mL (≈ 15.2 µM) | MIC (P. rettgeri): 25 µg/mL (≈ 37.9 µM)

CCN1CCN(C(=O)N[C@@H](C(=O)N[C@]2(CO)C(=O)N3C(C(=O)O)=C(COC(C)=O)CS[C@@H]32)c2ccccc2)C(=O)C1=O [Example 1d, Sodium 7β-[2(4-ethyl-2,3-dioxpiperazine-1-carbonylamino)]phenylacetamido-7α-hydroxymethylcephalosporanate]
MIC (E. coli ESS): < 0.02 µg/mL | MIC (E. coli JT 4): 5 µg/mL | MIC (E. coli JT 425): 2.5 µg/mL | MIC (E. coli NCTC 10418): 2.5 µg/mL | MIC (Ps aeruginosa NCTC 10662; Ps aeruginosa NCTC 10662 10^-2): > 100 µg/mL | MIC (Ps aeruginosa NCTC 10662; [1]): > 100 µg/mL | MIC (Ps aeruginosa Dalgleish): > 100 µg/mL | MIC (S. marcescens US 32): 5 µg/mL | MIC (K. aerogenes A): 0.5 µg/mL | MIC (E. cloacae Nl): 10 µg/mL | MIC (P. mirabilis C 977): 2.5 µg/mL | MIC (P. mirabilis 889): 1 µg/mL | MIC (P. morganii): 10 µg/mL | MIC (P. rettgeri): 10 µg/mL | MIC (B. subtilis): > 100 µg/mL | MIC (S. aureus Oxford): > 100 µg/mL | MIC (S. aureus Russell): > 100 µg/mL | MIC (N. catarrhalis 1502): 0.2 µg/mL | MIC (S. faecalis I): > 100 µg/mL | MIC (S. pyogenes CN 10): 100 µg/mL

CCN1CCN(C(=O)N[C@@H](C(=O)N[C@]2(CO)C(=O)N3C(C(=O)O)=C(COC(C)=O)CS[C@@H]32)c2ccc(O)cc2)C(=O)C1=O [Example 3b, Sodium 7β-[2-(4-ethyl-2,3-dioxopiperazine-1-carbonylamino)-2-(4-hydroxyphenyl)acetamido]-7α-hydroxymethylcephalosporanate]
MIC (E. coli ESS): 0.05 µg/mL | MIC (E. coli JT 4): 2.5 µg/mL | MIC (E. coli JT 425): 1 µg/mL | MIC (E. coli NCTC 10418): 1 µg/mL | MIC (Ps aeruginosa NCTC 10662; Ps aeruginosa NCTC 10662 10^-2): 50 µg/mL | MIC (Ps aeruginosa NCTC 10662; [1]): 50 µg/mL | MIC (Ps aeruginosa Dalgleish): 25 µg/mL | MIC (S. marcescens US 32): 5 µg/mL | MIC (K. aerogenes A): 0.25 µg/mL | MIC (E. cloacae Nl): 10 µg/mL | MIC (P. mirabilis C 977): 2.5 µg/mL | MIC (P. mirabilis 889): 0.5 µg/mL | MIC (P. morganii): 10 µg/mL | MIC (P. rettgeri): 10 µg/mL | MIC (B. subtilis): > 100 µg/mL | MIC (S. aureus Oxford): > 100 µg/mL | MIC (S. aureus Russell): > 100 µg/mL | MIC (N. catarrhalis 1502): 0.5 µg/mL | MIC (S. faecalis I): > 100 µg/mL | MIC (S. pyogenes CN 10): > 100 µg/mL
